# Measured values: patent US20230270781A1, “TREATMENT OR PREVENTION OF PRO-INFLAMMATORY DISEASES OR CONDITIONS USING INDUCED REGULATORY T (ITREG) CELLS” (RAPA THERAPEUTICS, LLC, priority 2020, published 2023)
# B1: Daclizumab: anti-IL-2 receptor monoclonal antibody (antibody, chains of the INN, looked up, V domains shown)
# VH: QVQLVQSGAEVKKPGSSVKVSCKASGYTFTSYRMHWVRQAPGQGLEWIGYINPSTGYTEYNQKFKDKATITADESTNTAYMELSSLRSEDTAVYYCARGGGVFDYWGQGTLVTVSS
# VL: DIQMTQSPSTLSASVGDRVTITCSASSSISYMHWYQQKPGKAPKLLIYTTSNLASGVPARFSGSGSGTEFTLTISSLQPDDFATYYCHQRSTYPLTFGQGTKVEVK
# How the values were obtained:
# [1] = system: human CD4+ and CD8+ T cells; assay: RNA expression analysis (Luminex Quantigene) after 3-day de-differentiation culture; format: cell-based; conditions: relative to control Th1/Tc1 culture, temsirolimus 1 µM
# Experimental: At the end of the de-differentiation interval, cells were harvested, RNA was isolated, and RNA expression analysis was performed by Luminex Quantigene method. All results shown represent relative RNA expression, with results normalized to a value of 1.0 for the Th1/Tc1 control culture.
# [2] = system: human CD4+ and CD8+ T cells; assay: Luminex cytokine secretion in extended hybrid Th2/TREG culture (days 12, 20, 32); format: cell-based; conditions: for ability of T cells to secrete IL-5 / ability of T cells to secrete IL-13: inhibitor in TREG-Th2 re-differentiation culture: temsirolimus 1.0 µM or pemetrexed 10 nM
# From the text: (§1) FIGS. 21A-21D illustrates that extended culture of de-differentiated T cells in the hybrid Th2/TREG polarization condition results in the generation of T cells expressing with a predominant Th2 cytokine phenotype: IL-4, IL-5, and IL-13 secretion. […] At days 12, 20, and 32 of culture, the T cells were harvested, washed, and restimulated with 3/28 beads (3:1 ratio) for 24 hr; the resultant supernatant was harvested and tested for cytokine content by Luminex multi-analyte method. All results shown are expressed as cytokine level in pg per ml per 1 × 10^6 cells/ml/24 hr. The Th2 cytokine IL-10 was also evaluated: all values were less than 20 pg/ml per 1 × 10^6 cells/ml/24 hr.
# as §1, with “22A-22D illustrate” for “21A-21D illustrates”, “IL-2, IFN-γ,” for “IL-4, IL-5,”, “GM-CSF” for “IL-13”, “inflammatory cytokines IL-17 and TNF-α were” for “Th2 cytokine IL-10 was”
# [3] = system: human CD4+ and CD8+ T cells; assay: T cell yield at day 13 after de-differentiation interval and re-stimulation without inhibitors; format: cell-based; conditions: column #7; temsirolimus reduced to 0.1 µM
# Experimental: After 10 days (13 days of total culture), the T cells were harvested, enumerated, and evaluated by flow cytometry. FIG. 8 illustrates the effect of culture components during the de-differentiation interval on subsequent T cell yield (at day 13 of culture). […] After the 3-day interval, media was exchanged to fresh X-Vivo 20 without inhibitors, high-level co-stimulation was provided (3:1 bead-to-T cell ratio), and the T cell growth cytokines IL-2 (100 IU/ml) and IL-7 (10 ng/ml) were added. At day 13 of culture, viable T cells were enumerated and the overall yield is shown relative to day 0 input number.
# [4] = system: human CD4+ and CD8+ T cells; assay: Western blot for Raptor, Rictor, p70S6K, SGK1 after 3-day de-differentiation culture; format: cell-based; conditions: relative to control culture without the three inhibitors; temsirolimus 1 µM, Vitamin D 0.03-1.0 nM, Daclizumab 50 µg/ml
# From the text: After the 3-day culture interval, the T cells were harvested, and protein was isolated and subjected to western blot analysis for the mTORC1 complex protein, Raptor; the mTORC2 complex protein, Rictor; the post-mTORC1 protein p70S6K; the post-mTORC2 protein, SGK1; and the housekeeping gene, GAPDH.
# [5] = system: human CD4+ and CD8+ T cells; assay: Western blot for mTORC1 complex protein Raptor after 3-day de-differentiation culture; format: cell-based
# From the text: After the 3-day culture interval, the T cells were harvested, and protein was isolated and subjected to western blot analysis for the mTORC1 complex protein, Raptor, and the housekeeping gene, Actin.
# [6] = system: T cell TCR specificities of peripheral blood mononuclear cells; assay: RNA-based T cell receptor repertoire profiling pre- and post-etanercept therapy; format: in vivo, human
# From the text: (§2) FIGS. 23A & 23B depict the use of RNA-based T cell receptor sequencing to detect a widespread up- and down-regulation of T cell TCR specificities after therapy with the TNF-α inhibitor, etanercept. In FIG. 23, RNA was isolated from peripheral blood mononuclear cells from an patient pre- and post-therapy with etanercept therapy. The RNA was subjected to TCR repertoire profiling, as previously described by Rosati E, Dowds CM, Liaskou E, Henriksen EKK, Karlsen TH, Franke A. Overview of methodologies for T-cell receptor repertoire analysis. BMC Biotechnol. 2017;17(1):61.
# as §2, with “FIGS. 36A-36B” for “FIGS. 23A & 23B”, “depict” for “depict the”, “In FIGS. 36A-36B,” for “In FIG. 23,”, “from a” for “from an”
# [7] = system: human CD4+ and CD8+ T cells; assay: Flow cytometry of FOXP3, Tbet, GATA3 in extended hybrid Th2/TREG culture (days 12, 20, 32); format: cell-based
# From the text: To evaluate these transcription factors in our manufacturing method, T cells were first subjected to the step 1 de-differentiation procedure and then re-differentiated in the hybrid TREG-Th2 culture condition (IL-2, TGF-β, and IL-4). In addition, we compared the effects of pemetrexed with a classical mTOR inhibitor.
# The iTREG phenotype is considered to be unstable; as such, we evaluated the stability of T cells re-differentiated using the hybrid TREG-Th2 culture condition at delayed time points, including days 20 and 32 of culture. In addition, to test phenotype stability in a rigorous manner, between day 24 and day 32 of culture, T cells received a high level of co-stimulation (3:1 bead-to-T cell ratio) and were propagated in media without cytokines or pharmacologic agents.
# FIGS. 19A-19D illustrate that extended culture of de-differentiated T cells in the hybrid Th2/TREG polarization condition containing pemetrexed results in the generation of CD4^+ T cells expressing FOXP3 and GATA3 transcription factors. […] At days 12, 20, and 32 of culture, T cells were harvested and subjected to surface flow cytometry (CD4 marker) and intra-cellular staining for the following transcription factors, FOXP3, Tbet, and GATA3. The data above show the percent CD4 cells out of the total cultured population (FIG. 19A); the percent of CD4 cells that expressed the TREG transcription factor FOXP3 (FIG. 19B); the percent of CD4 cells that expressed the Th1 transcription factor Tbet (FIG. 19C); and the percent of CD4 cells that expressed the Th2 transcription factor GATA3 (FIG. 19D).
# FIGS. 20A-20D illustrate that extended culture of de-differentiated T cells in the hybrid Th2/TREG polarization condition containing pemetrexed results in the generation of CD8^+ T cells expressing FOXP3 and GATA3 transcription factors. […] At days 12, 20, and 32 of culture, T cells were harvested and subjected to surface flow cytometry (CD8 marker) and intra-cellular staining for the following transcription factors, FOXP3, Tbet, and GATA3. […]
# [8] = system: human CD4+ and CD8+ T cells; assay: Expansion of de-differentiated T cells in Th1, TREG or hybrid Th2/TREG polarization with or without pemetrexed; format: cell-based
# Experimental: Human CD4^+ and CD8^+ T cells were subjected to a 3-day de-differentiation procedure (“STEP 1”). […] In addition, the T cell culture in the presence of the variable polarization conditions was performed without the novel inhibitory molecule, pemetrexed (“0”) or in the presence of variable concentrations of pemetrexed, as indicated (10 nM [“10”]; 33 nM [“33”]; or 100 nM [“100”]. After a total of 10 days of culture, the n=24 cultures were harvested and live cells were enumerated and graphed above (y-axis indicated number of cells × 10^6; input cell number was 1.5 × 10^6 cells).
# [9] = system: human CD4+ and CD8+ T cells; assay: Western blot for pro-apoptosis molecule BIM after 3-day de-differentiation culture; format: cell-based; conditions: 1:3 bead-to-T cell ratio; temsirolimus, Vitamin D 0.1 nM, Daclizumab 50 µg/ml
# From the text: After the 3-day culture interval, the T cells were harvested, and protein was isolated and subjected to western blot analysis for the pro-apoptosis-related gene, BIM, and the housekeeping gene, Actin.
# [10] = 3-day culture, bead-to-T cell ratio 1:3, Vitamin D 0.1 or 1.0 nM
# [11] = patient PBMC, post- versus pre-etanercept
molecule,measurement,setting,value
CO[C@H]1C[C@@H]2CC[C@@H](C)[C@@](O)(O2)C(=O)C(=O)N2CCCC[C@H]2C(=O)O[C@H]([C@H](C)C[C@@H]2CC[C@@H](OC(=O)C(C)(CO)CO)[C@H](OC)C2)CC(=O)[C@H](C)/C=C(\C)[C@@H](O)[C@@H](OC)C(=O)[C@H](C)C[C@H](C)/C=C/C=C/C=C/1C [temsirolimus],Granzyme B RNA expression,[1]; [10],reduction
same,IFN-gamma RNA expression,[1]; [10],reduction
same,IL-10 RNA expression,[1]; [10],reduction
same,IL-7 receptor alpha RNA expression,[1]; Vitamin D 1.0 nM,capable of up-regulating
same,KLF4 RNA expression,[1]; Vitamin D 1.0 nM,neither temsirolimus nor Vitamin D alone increased
same,KLF10 RNA expression,[1]; Vitamin D 1.0 nM,acts alone to beneficially up-regulate
same,HIF-1-α RNA expression,[1]; Vitamin D 0.1 to 1.0 nM,did not down-regulate
same,Nanog transcription factor RNA expression,[1]; Vitamin D 0.1 to 1.0 nM,up-regulation
same,STAT1 RNA expression,[1]; Vitamin D 0.1 to 1.0 nM,acts alone to beneficially down-regulate
same,T-BET RNA expression,[1]; Vitamin D 0.1 to 1.0 nM,acts alone to beneficially down-regulate
same,ability of T cells to secrete IL-5,[2],blunted
same,ability of T cells to secrete IL-13,[2],blunted
same,T cell yield at day 13 with temsirolimus 0.1 µM,[3],reduced the resultant T cell yield
same,Rictor expression (western blot),[4],effective
same,Raptor expression at temsirolimus 0.3 µM,"[5]; culture 9, temsirolimus 0.3 µM, versus 1.0 µM",higher levels of Raptor expression
same,temsirolimus dose for optimal down-regulation of Raptor,[5]; in combination with Vitamin D,1.0 µM
etanercept,post-treatment frequencies of contracted T cell clones (SEQ ID NOs: 1-3 and 5),[6]; decreased from frequencies of 259 to 598 pre-etanercept,0.01
same,TCR specificities down-regulated in the post-therapy sample,[6]; [11],approximately 25%
same,TCR specificities up-regulated in the post-therapy sample,[6]; [11],approximately 25%
same,T cell clonal contraction,[6]; post- versus pre-etanercept,more than 4 log
same,T cell clonal expansion,[6]; post- versus pre-etanercept,more than 4 log
Nc1nc2[nH]cc(CCc3ccc(C(=O)N[C@@H](CCC(=O)O)C(=O)O)cc3)c2c(=O)[nH]1 [pemetrexed],CD4 cells expressing GATA3,"[7]; end of culture, hybrid condition with pemetrexed 10 nM versus no inhibitor or temsirolimus",highest end-of-culture Th2-associated GATA3 expression
same,CD8+ T cells expressing TBET,[7]; hybrid condition in the presence of pemetrexed 10 nM,lowest levels
same,CD4 cells expressing TBET,[7]; hybrid polarization condition with pemetrexed 10 nM versus no inhibitor or temsirolimus,most consistently reduced TBET values
same,GM-CSF secretion,[2]; TREG-Th2 hybrid culture supplemented with pemetrexed 10 nM,higher degree
same,ability of T cells to secrete IL-5,[2],fully preserved
same,ability of T cells to secrete IL-13,[2],fully preserved
same,T cell number after re-differentiation in pure TREG polarization (IL-2 plus TGF-β without IL-4),"[8]; most stringent step 1, cultures #20 and #21, in the presence of pemetrexed",unsuccessful
same,T cell number after re-differentiation in TREG-Th2 polarization,"[8]; step 1 temsirolimus, vitamin D, anti-IL-2 receptor antibody, pemetrexed 10 nM in step 2, 10 days",sufficient T cells
B1,"BIM expression (western blot, normalized by actin)",[9],beneficial role in suppressing
same,Rictor expression (western blot),[4],did not abrogate
same,"Raptor expression (western blot, normalized by actin)","[5]; 1:3 bead-to-T cell ratio, temsirolimus 1.0 µM, Vitamin D 0.1 nM, daclizumab 50 µg/ml",beneficial role in suppressing
